# From patent US20020028258A1, “Immunostimulant compositions and associated methods” (Pharmanex, LLC, priority 2000, published 2002)
# Tests used:
# Format in all cases: cell-based, human
# Conditions in all cases: 50 ng/ml
# CD8+ immune cells = test: Immune Cell Stimulation Assay Method (CD69 expression, flow cytometry), CD8+
# Description: (§1) Each immunostimulation assay uses a Becton Dickinson FACScan flow cytometer to quantify immune cell activity. The specific protocol for measuring such activity utilizes freshly drawn human blood collected in sodium heparin to 200 μL. Echinacea extract is added in a desired concentration after being mixed with 50 μL of phosphate buffer. The blood and Echinacea mixture is vortexed and incubated at 37° C. for 5 hours to allow adequate time for immune cell stimulation.
# (§2) Positive controls consist of PMA (50 ng/ml), PHA ([…]), or CD2/CD2R (5 μL/250 μL) and negative controls consist of DMSO (2% in RPMI), RPMI, and cyclosporin A (10 μg/ml). For staining, 20 μL of reagent cocktail (CD4FITC/CD69PE/CD3PerCP (expressed on the helper/inducer T-lymphocyte subset and is the primary receptor for HIV); CD8FITC/CD69PE/CD3PerCP (expressed on the human suppressor/cytotoxic T-lymphocytes and on a subset of natural killer lymphocytes); CD19FITC/CD69PE/CD45PerCP (expressed on B-lymphocytes); CD56FITC/CD69PE/CD45PerCP (expressed on NK lymphocytes), for examples) are used.
# (§3) Following the cell stimulation period described above, solutions of fractions and constituents are compared quantitatively with the above-recited controls. […] The prepared samples are analyzed in the flow cytometer. […] Individual cell types are quantitated using appropriate stains and gating as known by those skilled in the art.
# CD4+ immune cells = test: Immune Cell Stimulation Assay Method (CD69 expression, flow cytometry), CD4+
# Description: as §1, §2
# Following the cell stimulation period described above, solutions of fractions and constituents are compared quantitatively with the above-recited controls. Next 50 μL of the stimulated blood samples are added to each of the tubes containing the reagent cocktail, vortexed and incubated at room temperature for 30 min. in the dark. Then 450 μL of 1× FACS lysing solution is added to each tube which is vortexed gently and incubated in the dark at room temp. for 20 min. The prepared samples are analyzed in the flow cytometer. CD69 (CD stands for cluster determinant) is the first […] expressed by any of these cells following stimulation and is produced on the surface of T-, B- and NK-lymphocytes. […] Individual cell types are quantitated using appropriate stains and gating as known by those skilled in the art.
# CD56+ cells = test: Immune Cell Stimulation Assay Method (CD69 expression, flow cytometry), CD56+
# Description: as §1, §2, §3
# CD19+ cells = test: Immune Cell Stimulation Assay Method (CD69 expression, flow cytometry), CD19+
# Description: as §1, §2, §3
smiles,measurement,setting,value
CCCCCCCCCCCCCC(=O)O[C@@H]1[C@@H](C)[C@@]2(O)[C@@H](C=C(CO)C[C@]3(O)C(=O)C(C)=C[C@@H]23)[C@@H]2C(C)(C)[C@]12OC(C)=O [PMA],"CD8+ stimulation, positive control",CD8+ immune cells; Table 7,99.04%
same,"CD8+ stimulation, positive control",CD8+ immune cells; Table 8,98.320%
same,"CD4+ stimulation, positive control",CD4+ immune cells; Table 2,99.16%
same,"CD4+ stimulation, positive control",CD4+ immune cells; Table 3,99.16%
same,"CD4+ stimulation, positive control",CD4+ immune cells; Table 4,99.20%
same,"CD4+ stimulation, positive control",CD4+ immune cells; Table 7,99.42%
same,"CD4+ stimulation, positive control",CD4+ immune cells; Table 8,98.770%
same,"CD56+ stimulation, positive control",CD56+ cells; Table 7,94.14%
same,"CD56+ stimulation, positive control",CD56+ cells; Table 8,94.940%
same,"CD19+ stimulation, positive control",CD19+ cells; Table 7,97.68%
same,"CD19+ stimulation, positive control",CD19+ cells; Table 8,98.820%
